{"source": "patent US12337010B2", "about": "“Compositions and methods of treatment using nicotinamide mononucleotide” (Washington University, priority 2017, dated 2025)", "molecular_target": "T1, Slc12a8 (Mus musculus, UniProt Q8VI23)", "T1 construct": "NIH3T3 cells were transfected with 5 μg of pCXN2 carrying the full-length Slc12a8 cDNA (Slc12a8-OE); expressed in transfected cells", "T1 sequence (Q8VI23 1-705)": "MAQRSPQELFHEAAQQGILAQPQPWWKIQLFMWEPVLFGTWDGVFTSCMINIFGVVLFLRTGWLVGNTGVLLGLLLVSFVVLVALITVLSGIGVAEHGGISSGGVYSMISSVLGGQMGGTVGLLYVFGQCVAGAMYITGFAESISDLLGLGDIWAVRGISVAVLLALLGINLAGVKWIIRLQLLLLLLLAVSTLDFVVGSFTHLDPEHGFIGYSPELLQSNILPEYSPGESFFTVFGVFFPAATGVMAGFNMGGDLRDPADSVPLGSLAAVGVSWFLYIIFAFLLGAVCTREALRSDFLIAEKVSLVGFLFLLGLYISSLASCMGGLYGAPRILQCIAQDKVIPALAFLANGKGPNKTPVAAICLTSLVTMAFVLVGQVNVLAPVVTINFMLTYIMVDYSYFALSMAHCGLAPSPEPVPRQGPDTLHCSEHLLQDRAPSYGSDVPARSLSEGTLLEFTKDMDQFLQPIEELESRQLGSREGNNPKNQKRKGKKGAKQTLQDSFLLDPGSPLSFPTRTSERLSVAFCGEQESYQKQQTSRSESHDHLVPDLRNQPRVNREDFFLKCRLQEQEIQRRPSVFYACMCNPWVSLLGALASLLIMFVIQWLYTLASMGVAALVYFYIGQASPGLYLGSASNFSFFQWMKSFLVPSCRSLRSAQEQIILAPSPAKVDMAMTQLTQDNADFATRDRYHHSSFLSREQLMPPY", "test": "3H-NMN uptake and displacement in Slc12a8-OE proteoliposomes", "format": "biochemical", "procedure": "Proteoliposome experiments. Proteoliposome preparation was carried out as previously described (Bruzzone, S., et al., FASEB J., 15, 10-12, 2001). Briefly, 2×10^7 control or Slc12a8-OE NIH3T3 cells were resuspended in 1 ml of lysis buffer (10 mM Tris-HCl, pH 8.3, 150 mM NaCl, 0.3 M sucrose, protease inhibitor cocktail) and disrupted using a homogenizer. The lysate was centrifuged for 10 min at 3,000×g, and the supernatant was collected and centrifuged for 15 min at 100,000×g. The membrane proteins were solubilized with buffer A (10 mM Tris-HCl, pH 8.3, containing 150 mM NaCl and 0.5% n-octyl β-glucopyranoside). Separately, total lipids were extracted from hemoglobin-free erythrocyte membranes (ghosts) as described previously (Franco, L., et al., FASEB J., 12, 1507-1520, 1998). Total lipids from human erythrocyte membranes (3 mg) were dried and resuspended with 600 μl of solubilized membrane proteins (at approximately 0.7 mg/ml protein concentration). The resulting emulsions were sonicated in ice for 1 min and dialyzed against 5 liters of buffer A without n-octyl-β-glucopyranoside (dialysis buffer) for 24 h at 4° C. Proteoliposomes were recovered, centrifuged for 15 min at 100,000×g, resuspended in 900 μl dialysis buffer and passed 5 times through a 30-gauge needle.\nTo examine the Na+-dependency of Slc12a8, NaCl was replaced with 150 mM LiCl. All steps were carried out at 4° C. Proteoliposomes (30 μl in triplicate for each condition) were incubated for 2, 5 or 10 min at 25° C. in the presence of […] 3H-β-NMN (specific activity, 9.1 Ci/mmole) with or without label-free nucleotides (NMN, NR, NAD, AMP; NAM or NaMN). At the end of incubations, samples were filtered on a glass fiber paper. Filters were washed with 3 ml of dialysis buffer, dried, and counted for radioactivity.\nProteoliposomes were produced by combining the membrane fractions of Slc12a8-OE or control NIH3T3 cells with the phospholipid bilayers derived from deproteinized erythrocyte plasma membrane as described supra using 22 nM, ^3H-NMN at 25° C. in proteoliposomes produced from plasma membrane fractions of Slc12a8-OE and control NIH3T3 cells in transport buffer (n=3; analyzed by one-way ANOVA with Sidak's multiple comparisons test).\nIn order to determine substrate specificity of Slc12a8, these Slc12a8-OE proteoliposomes were used for displacement experiments with ^3H-NMN and various cold NAD+-related compounds. Uptake of ^3H-NMN (150 nM, 25° C.) was measured at 2 min in Slc12a8-OE proteoliposomes in the presence of 150 μM competing cold compounds (NMN, NR, NAD, AMP, NaMN, and nicotinamide) in transport buffer (n=3, analyzed by ANOVA with Dunnett's test). […] Data are shown as percentages of ^3H-NMN uptake (n=3; IC50 was calculated by non-linear regression analysis).\nIn these experiments, the sodium ion dependency of Slc12a8 for NMN transport was evaluated using the proteoliposome system."}
{"smiles": "NC(=O)c1ccc[n+]([C@@H]2O[C@H](COP(=O)([O-])O)[C@@H](O)[C@H]2O)c1", "note": "[NMN, nicotinamide mononucleotide]", "values": [{"measurement": "displacement of 3H-NMN", "setting": "150 μM cold compound, 150 nM 3H-NMN, 25° C., 2 min", "value": "complete displacement"}, {"measurement": "IC50", "setting": "Slc12a8-OE proteoliposome system", "value": "22.8 ± 3.6", "unit": "µM"}]}
